Results on 8 compounds are retold here after ChEMBL document CHEMBL4190368, “Synthesis and antimalarial evaluation of artesunate-polyamine and trioxolane-polyamine conjugates” (Eur J Med Chem, 2017).

In data set [1] the test system is Plasmodium berghei. As to the kind of experiment: Antiplasmodial activity against GFP-transfected Plasmodium berghei ANKA infected in NMRI mouse assessed as mouse survival at 50 mg/kg/day, ip for 4 days measured up to 30 days. It counts as functional.
For data set [2], the system named is Plasmodium falciparum. As to the kind of experiment: Antiplasmodial activity against chloroquine and pyrimethamine resistant Plasmodium falciparum K1 assessed as reduction in [3H]-hypoxanthine incorporation incubated for 48 hrs by liquid scintillation counting method. Type of data set: functional, organism-based.
Data set [3] has as its system Plasmodium falciparum. As to the kind of experiment: Antiplasmodial activity against chloroquine sensitive Plasmodium falciparum NF54 assessed as reduction in [3H]-hypoxanthine incorporation incubated for 48 hrs by liquid scintillation counting method. It counts as functional, organism-based.
The test system of a further data set is L6. The data set can be described thus: Cytotoxicity in rat L6 cells assessed as reduction in cell viability incubated for 72 hrs by alamar blue dye based assay. The conditions noted are these: L6, 72 h.
Data set [4] is described as follows: Selectivity index, ratio of IC50 for rat L6 cells to IC50 for chloroquine and pyrimethamine resistant Plasmodium falciparum K1. Particulars: L6 cells versus Plasmodium falciparum K1, read-out: Ratio IC50. Type of data set: toxicity.
Data set [5] concerns Plasmodium berghei. As to the kind of experiment: Antiplasmodial activity against GFP-transfected Plasmodium berghei ANKA infected in NMRI mouse assessed as reduction in parasitaemia at 50 mg/kg/day, ip for 4 days measured on 24 hrs after last dose by FACS analysis. It counts as functional. The arrangement: scale not given: the % may be the effect or the level left.
A short description of data set [6]: Selectivity index, ratio of IC50 for rat L6 cells to IC50 for chloroquine sensitive Plasmodium falciparum NF54. Particulars: L6 cells versus Plasmodium falciparum NF54, read-out: Ratio IC50. Type of data set: toxicity.
Data set [7] deals with Plasmodium berghei. As to the kind of experiment: Antiplasmodial activity against GFP-transfected Plasmodium berghei ANKA infected in NMRI mouse assessed as mouse survival at 50 mg/kg/day, po for 4 days measured up to 30 days. It counts as functional.
For data set [8], the system named is Plasmodium berghei. As to the kind of experiment: Antiplasmodial activity against GFP-transfected Plasmodium berghei ANKA infected in NMRI mouse assessed as reduction in parasitaemia at 100 mg/kg/day, po for 4 days measured on 24 hrs after last dose by FACS analysis. The arrangement: scale not given: the % may be the effect or the level left. It counts as functional.

Molecules are shown by their SMILES.

As to `CC(C)(C)OC(=O)N(CCCCCCCN(CCCNC(=O)C1CCC2(CC1)OOC1(O2)C2CC3CC(C2)CC1C3)C(=O)OC(C)(C)C)CCCNC(=O)C1CCC2(CC1)OOC1(O2)C2CC3CC(C2)CC1C3` (configuration not stated), the Survival with Plasmodium berghei [1] was found to be 7.3 days. Besides, the IC50 with Plasmodium falciparum [2] was 32.2 nM; with Plasmodium falciparum [3] it was 45.4 nM; with L6 it was above 100000 nM. Also, the selectivity ratio in [4] is above 3020. Moreover, in the data set with Plasmodium berghei [5], the Activity was determined as 94.7%.

Turning to `C[C@H]1[C@H](OC(=O)CCC(=O)NCCCN(CCCCN(CCCNC(=O)CCC(=O)O[C@@H]2O[C@@H]3O[C@@]4(C)CC[C@H]5[C@H](C)CC[C@@H]([C@H]2C)[C@@]35OO4)C(=O)CCC(=O)O[C@@H]2O[C@@H]3O[C@@]4(C)CC[C@H]5[C@H](C)CC[C@@H]([C@H]2C)[C@@]35OO4)C(=O)CCC(=O)O[C@@H]2O[C@@H]3O[C@@]4(C)CC[C@H]5[C@H](C)CC[C@@H]([C@H]2C)[C@@]35OO4)O[C@@H]2O[C@@]3(C)CC[C@H]4[C@H](C)CC[C@@H]1[C@@]24OO3`, the selectivity ratio in data set [6] is 37300. The Survival in the data set on Plasmodium berghei [1] is 30 days. Also, the IC50 in the data set with Plasmodium falciparum [3] is 0.3 nM; with L6 it was 11200 nM. Besides, the Activity in the data set on Plasmodium berghei [5] turned out to be 95.5%.

Take `CC(C)(C)OC(=O)N(CCCCCCN(CCCNC(=O)C1CCC2(CC1)OOC1(O2)C2CC3CC(C2)CC1C3)C(=O)OC(C)(C)C)CCCNC(=O)C1CCC2(CC1)OOC1(O2)C2CC3CC(C2)CC1C3` (configuration not stated): the Survival with Plasmodium berghei [1] worked out at 6.7 days. The IC50 in the data set with Plasmodium falciparum [2] was 5 nM; in the data set on Plasmodium falciparum [3], 21 nM; with L6 it was 59200 nM. The selectivity ratio in [4] is 10800. In the data set with Plasmodium berghei [5], the Activity stood at 79.4%.

On to `C[C@H]1[C@H](OC(=O)CCC(=O)NCCCN(CCCCN(CCCNC(=O)CCC(=O)O[C@@H]2O[C@@H]3O[C@@]4(C)CC[C@H]5[C@H](C)CC[C@@H]([C@H]2C)[C@@]35OO4)C(=O)OC(C)(C)C)C(=O)OC(C)(C)C)O[C@@H]2O[C@@]3(C)CC[C@H]4[C@H](C)CC[C@@H]1[C@@]24OO3`, for which the selectivity ratio in data set [6] came to 30200. In addition, the Survival in the data set on Plasmodium berghei [1] is 30 days; with Plasmodium berghei [7], 16 to 30 days. Also, the concentration for half-maximal inhibition (IC50) amounted to 0.4 nM in the data set with Plasmodium falciparum [3] and 12100 nM in the data set with L6. Moreover, the Activity in the data set on Plasmodium berghei [8] is given as 95.7%; in the data set with Plasmodium berghei [5], 99.8%.

Regarding `CC(C)(C)OC(=O)N(CCCCN(CCCNC(=O)C1CCC2(CC1)OOC1(O2)C2CC3CC(C2)CC1C3)C(=O)OC(C)(C)C)CCCNC(=O)C1CCC2(CC1)OOC1(O2)C2CC3CC(C2)CC1C3` (configuration not stated), in the data set on Plasmodium berghei [1], the Survival is 9.3 days. Moreover, the IC50 came out at 9.2 nM in the data set on Plasmodium falciparum [2], 5.1 nM in the data set on Plasmodium falciparum [3] and 65800 nM with L6. Besides, in [4], the selectivity ratio turned out to be 7160. Moreover, the Activity in the data set on Plasmodium berghei [5] is given as 96.4%.

With `C[C@H]1[C@H](OC(=O)CCC(=O)NCCCN(CCCCCCCCCCN(CCCNC(=O)CCC(=O)O[C@@H]2O[C@@H]3O[C@@]4(C)CC[C@H]5[C@H](C)CC[C@@H]([C@H]2C)[C@@]35OO4)C(=O)CCC(=O)O[C@@H]2O[C@@H]3O[C@@]4(C)CC[C@H]5[C@H](C)CC[C@@H]([C@H]2C)[C@@]35OO4)C(=O)CCC(=O)O[C@@H]2O[C@@H]3O[C@@]4(C)CC[C@H]5[C@H](C)CC[C@@H]([C@H]2C)[C@@]35OO4)O[C@@H]2O[C@@]3(C)CC[C@H]4[C@H](C)CC[C@@H]1[C@@]24OO3`, the IC50 turned out to be 1.1 nM in the data set on Plasmodium falciparum [2], 0.6 nM in the data set on Plasmodium falciparum [3] and 490 nM in the data set on L6. In data set [4], the selectivity ratio worked out at 445.

`C[C@H]1[C@H](OC(=O)CCC(=O)NCCCN(CCCCCCCN(CCCNC(=O)CCC(=O)O[C@@H]2O[C@@H]3O[C@@]4(C)CC[C@H]5[C@H](C)CC[C@@H]([C@H]2C)[C@@]35OO4)C(=O)OC(C)(C)C)C(=O)OC(C)(C)C)O[C@@H]2O[C@@]3(C)CC[C@H]4[C@H](C)CC[C@@H]1[C@@]24OO3`: the results for the IC50 with Plasmodium falciparum [2], with Plasmodium falciparum [3] and in the data set on L6 were 0.8 nM, 0.6 nM and 970 nM, respectively. In addition, in data set [4], the selectivity ratio stood at 1210.

For `O=C(NCCCN(CCCCCCN(CCCNC(=O)C1CCC2(CC1)OOC1(O2)C2CC3CC(C2)CC1C3)C(=O)C1CCC2(CC1)OOC1(O2)C2CC3CC(C2)CC1C3)C(=O)C1CCC2(CC1)OOC1(O2)C2CC3CC(C2)CC1C3)C1CCC2(CC1)OOC1(O2)C2CC3CC(C2)CC1C3` (configuration not stated), the IC50 was 11 nM in the data set on Plasmodium falciparum [2], 22 nM with Plasmodium falciparum [3] and 63200 nM with L6. Also, in data set [4], the selectivity ratio came to 5740.
